Data published in patent EP3046573B1, “AMYLIN ANALOGUES” (Zealand Pharma A/S, priority 2013, dated 2015).
Numbered stars: 1 amine (or outer) side, 2 acyl side, 3 side chain; on linkers, the order of the positions; unused ones are H or OH. Bridge positions count the residues as written; N and C are the ends. Square brackets hold non-standard residues; d marks the D form. Peptide text beside a SMILES is read from it. * marks the point of attachment. C20 diacid = O=C(O)CCCCCCCCCCCCCCCCCCC(=O)*; γGlu = O=C(O)[C@H](CCC(=O)[*:2])N[*:1]; NMeI = CC[C@H](C)[C@H](NC)C(=O)O; Sar = CNCC(=O)O

Tests used:
HFD-fed rats = assay: Development of obesity in rats fed on a high-fat diet (HFD); assay type: in vivo, Male Sprague Dawley rats
Protocol: (§1) Whole-blood glucose levels were determined on tail-vein blood samples by the Biosen (EKF Diagnostic, Germany) enzyme-based electrode method. Blood samples were analyzed for glycated hemoglobin (HbA1c) using a Cobas c111 analyzer (Roche Diagnostics, Mannheim, Germany). Plasma insulin levels were measured using a Meso Scale Discovery (MSD) system (Rockville, MD, USA). Liver fat content was determined by magnetic resonance (MR) scanning using an Echo systems MR scanner. Fat depots were measured by weighing of excised fat.
(§2) Male Sprague Dawley rats obtained from Taconic A/S, Denmark, were used in this study. The animals arrived at least 7 days before the study start to allow acclimatization to experimental conditions. From arrival and throughout the study, the rats were housed in groups of 2 (n = 2) in a light-, temperature- and humidity-controlled room (reversed 12/12 h light/dark cycle: lights turned off during day-time and on during night-time; temperature 20-22°C; relative humidity 50-80%) and maintained on a HFD (60% of total energy from fat, D12492, Research Diet Inc., New Brunswick, USA) for 2 weeks. Animals had access ad libitum to water (domestic quality tap water with citric acid added to pH ∼ 3.6) during the entire study.The rats were stratified according to body weight (primary) and % body weight gain from the beginning of feeding with HFD (secondary), and treated for 4 weeks with Compound 18 [1, 5 and 30 nmol/kg sc, once weekly (QW)] and Compound 18 (5 nmol/kg sc, every 4th day), and with comparison/reference compounds NN96 (a pramlintide analogue, see Example 5; 30 nmol/kg sc, QW) and the marketed human GLP-1 receptor agonist liraglutide [50 nmol/kg sc, twice daily (bid)], respectively.
(§3) Post-hoc Dunnett's multiple comparison tests were conducted. When appropriate, the two-way ANOVA test was used followed by Bonferroni post tests; p < 0.05 was in all cases considered statistically significant.
(§4) The preventive effects of Compound 18 of the present invention on the development of obesity were investigated by measurement of body weight, food intake, water intake, blood glucose levels, plasma insulin levels, liver fat mass and fat depots.

Male Sprague Dawley rats = assay: Efficacy testing: development of obesity in rats fed on a high-fat diet (HFD); assay type: in vivo
Protocol: as §1, §2, §3, §4

[1] = system: rats self-selecting between a low-fat diet and a high-fat diet; assay: Food preference (FP) and development of obesity in rats fed on a high-fat diet (HFD); assay type: in vivo, Male Sprague Dawley rats; settings: 30 nmol/kg sc, QW, 4 weeks
Protocol: as §1
Male Sprague Dawley rats obtained from Taconic A/S, Denmark, were used in this study. The animals arrived at least 7 days before the study start to allow acclimatization to experimental conditions. From arrival and throughout the study, the rats were housed in groups of 2 (n = 2) in a light-, temperature- and humidity-controlled room (reversed 12/12 h light/dark cycle: lights turned off during day-time and on during night-time; temperature 20-22°C; relative humidity 50-80%) and maintained on a HFD (60% of total energy from fat, D12492, Research Diet Inc., New Brunswick, USA) for 2 weeks. Animals had access ad libitum to water (domestic quality tap water with citric acid added to pH ∼ 3.6) during the entire study. The rats were stratified according to body weight (primary) and % body weight gain from the beginning of feeding with HFD (secondary). Three days before the initiation of treatment the rats were allowed to self-select between a low-fat diet (LFD, standard chow, 11 % of total energy from fat, Atromin™ 1324, Brogaarden A/S, Gentofte, Denmark) and a high-fat diet, and they remained on the self-selected regimen for the duration of the study. Rats were treated for four weeks with Compound 18 [30 nmol/kg sc, once weekly (QW)] or vehicle.
Statistical analyses were performed using GraphPad™ Prism version 5. […]

SMILES: CC[C@H](C)[C@@H](C(=O)N[C@@H](CC(C)C)C(=O)N[C@@H](CO)C(=O)N[C@@H](CO)C(=O)N[C@H](C(=O)N[C@@H](CC(N)=O)C(=O)N[C@H](C(=O)NCC(=O)N[C@@H](CO)C(=O)N[C@@H](CC(N)=O)C(=O)N[C@H](C(=O)N1CCC[C@H]1C(N)=O)[C@@H](C)O)C(C)C)[C@@H](C)O)N(C)C(=O)[C@H](C)NC(=O)CN(C)C(=O)[C@H](Cc1ccccc1)NC(=O)[C@H](CC(N)=O)NC(=O)[C@H](CC(N)=O)NC(=O)[C@H](CO)NC(=O)[C@H](CO)NC(=O)[C@H](CCCNC(=N)N)NC(=O)[C@H](Cc1c[nH]cn1)NC(=O)[C@H](CC(C)C)NC(=O)[C@H](Cc1ccccc1)NC(=O)[C@H](CCC(=O)O)NC(=O)[C@H](C)NC(=O)[C@H](CC(C)C)NC(=O)[C@H](CCCNC(=N)N)NC(=O)[C@H](CCC(N)=O)NC(=O)[C@@H](NC(=O)[C@H](C)NC(=O)[C@@H]1CSSC[C@H](NC(=O)[C@H](CCCNC(=N)N)NC(=O)CC[C@H](NC(=O)CCCCCCCCCCCCCCCCCCC(=O)O)C(=O)O)C(=O)N[C@@H](CC(N)=O)C(=O)N[C@@H]([C@@H](C)O)C(=O)N[C@@H](C)C(=O)N[C@@H]([C@@H](C)O)C(=O)N1)[C@@H](C)O [Compound 18, [19CD]-isoGlu-RC()NTATC()ATQRLAEFLHRSSNNF-Gly(Me)-A-Ile(Me)-LSSTNVGSNTP-NH2] ({C20 diacid-γGlu}-RCNTATCATQRLAEFLHRSSNNF[Sar]A[NMeI]LSSTNVGSNTP-NH2; disulfide 2-7)
- anti-obesity effects with administration every 4th day (HFD-fed rats; 5 nmol/kg sc, every 4th day, 4 weeks): effects similar to those of Compound 18 dosed QW
- mass of fat depots (HFD-fed rats; 4 weeks treatment): a decrease in mass of fat depots
- food intake (HFD-fed rats; 4 weeks treatment, vs. vehicle): significantly decreased food intake
- terminal liver fat mass (HFD-fed rats; 5 and 30 nmol/kg, QW, 4 weeks): a decrease in terminal liver fat mass
- mass of fat depots (Male Sprague Dawley rats; 4 weeks treatment): decrease
- food intake (Male Sprague Dawley rats; 4 weeks treatment, vs. vehicle): significantly decreased
- terminal liver fat mass (Male Sprague Dawley rats; 5 and 30 nmol/kg, QW, 4 weeks): decrease
- reduction in body weight gain at the end of the study (Male Sprague Dawley rats; high-dose group (30 nmol/kg sc, QW), 4 weeks): 26%
- caloric intake deriving from LFD [1]: significant increase in caloric intake deriving from LFD
- body weight gain ([1]; rats self-selecting LFD/HFD): reduction of body weight gain
- total caloric intake combined from both diets ([1]; rats self-selecting LFD/HFD): a decrease in the total caloric intake
